Measurements from ChEMBL document CHEMBL4138256, “Design, Synthesis, and Biological Activity of 1,2,3-Triazolobenzodiazepine BET Bromodomain Inhibitors” (ACS Med Chem Lett, 2017).

How the values were obtained:
[1] = target: T1, Bromodomain-containing protein 4 (Homo sapiens, UniProt O60885)
Description: Inhibition of human His-tagged Brd4 bromodomain 1 expressed in Escherichia coli BL21 (DE3) preincubated for 30 mins followed by addition of biotinylated acetyl-histone H4 peptide and measured after 1 hr by AlphaScreen assay

[2] = target: T1, Bromodomain-containing protein 4; remark: listed apart in the source
Description: Inhibition of human His-tagged Brd4 bromodomain 2 expressed in Escherichia coli BL21 (DE3) preincubated for 30 mins followed by addition of biotinylated acetyl-histone H4 peptide and measured after 1 hr by AlphaScreen assay

[3] = target: Bromodomain-containing protein 3 (Homo sapiens, UniProt Q15059); test: Inhibition of human His-tagged Brd3 bromodomain 1 expressed in Escherichia coli BL21 (DE3) preincubated for 30 mins followed by addition of biotinylated acetyl-histone H4 peptide and measured after 1 hr by AlphaScreen assay
[4] = target: T2, Bromodomain-containing protein 2 (Homo sapiens, UniProt P25440); test: Inhibition of human His-tagged Brd2 bromodomain 1 expressed in Escherichia coli BL21 (DE3) preincubated for 30 mins followed by addition of biotinylated acetyl-histone H4 peptide and measured after 1 hr by AlphaScreen assay
Target sequence in this assay (P25440 whole entry): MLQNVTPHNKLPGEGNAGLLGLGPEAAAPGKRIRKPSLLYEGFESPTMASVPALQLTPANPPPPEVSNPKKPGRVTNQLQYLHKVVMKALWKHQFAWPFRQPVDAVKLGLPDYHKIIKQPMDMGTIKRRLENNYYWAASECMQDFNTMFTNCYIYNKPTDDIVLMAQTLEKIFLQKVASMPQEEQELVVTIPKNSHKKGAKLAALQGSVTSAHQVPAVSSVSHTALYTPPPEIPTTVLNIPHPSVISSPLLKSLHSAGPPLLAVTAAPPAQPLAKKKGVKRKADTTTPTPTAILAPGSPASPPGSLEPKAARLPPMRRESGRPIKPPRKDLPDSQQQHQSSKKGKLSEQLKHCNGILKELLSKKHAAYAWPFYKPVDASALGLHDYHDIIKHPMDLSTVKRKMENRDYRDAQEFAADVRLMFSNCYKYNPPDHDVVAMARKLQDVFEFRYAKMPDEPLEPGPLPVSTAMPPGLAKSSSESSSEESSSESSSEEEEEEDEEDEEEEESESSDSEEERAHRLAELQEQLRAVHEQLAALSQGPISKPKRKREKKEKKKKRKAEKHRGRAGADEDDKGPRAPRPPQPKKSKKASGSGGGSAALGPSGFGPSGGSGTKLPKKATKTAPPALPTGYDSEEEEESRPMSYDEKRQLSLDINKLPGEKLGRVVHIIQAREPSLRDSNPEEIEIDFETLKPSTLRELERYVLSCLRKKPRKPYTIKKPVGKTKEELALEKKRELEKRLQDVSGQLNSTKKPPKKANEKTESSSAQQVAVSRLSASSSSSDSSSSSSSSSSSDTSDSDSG

[5] = target: T2, Bromodomain-containing protein 2; test: Inhibition of human His-tagged Brd2 bromodomain 2 expressed in Escherichia coli BL21 (DE3) preincubated for 30 mins followed by addition of biotinylated acetyl-histone H4 peptide and measured after 1 hr by AlphaScreen assay
Target sequence in this assay (P25440 whole entry): as above

[6] = system: Raji; test: Antiproliferative activity against human Raji cells after 72 hrs by Cell-TiterGlo assay; type: functional, cell-based
[7] = system: K562; test: Antiproliferative activity against human K562 cells after 72 hrs by Cell-TiterGlo assay; type: functional, cell-based; details: K562, 72 h
[8] = system: HL-60; test: Antiproliferative activity against human HL60 cells after 72 hrs by Cell-TiterGlo assay; type: functional, cell-based; details: HL-60, 72 h
[9] = system: SUD4; test: Antiproliferative activity against human SU-DHL4 cells after 72 hrs by Cell-TiterGlo assay; type: functional, cell-based; details: SU-DHL-4, 72 h
[10] = Antiproliferative activity against human MLL-AF9 cells after 72 hrs by Cell-TiterGlo assay; type: functional, cell-based; details: MLL-AF9, 72 h
[11] = system: MV4-11; test: Antiproliferative activity against human MV4-11 cells after 72 hrs by Cell-TiterGlo assay; type: functional, cell-based; details: MV4-11, 72 h
[12] = Antiproliferative activity against mouse 148I cells after 72 hrs by Cell-TiterGlo assay; type: functional, cell-based
[13] = system: HEL 92.1.7; test: Antiproliferative activity against human HEL 92.1.7 cells after 72 hrs by Cell-TiterGlo assay; type: functional, cell-based; details: HEL 92.1.7, 72 h
[14] = target: T2, Bromodomain-containing protein 2
Target sequence in this assay (P25440 whole entry, looked up): as the sequence (P25440 whole entry) above
Description: Binding affinity to His-tagged human Brd2 bromodomain 2 (1 to 473 residues) assessed as association rate constant by surface plasmon resonance assay

[15] = system: RPMI-8226; test: Antiproliferative activity against human RPMI8226 cells after 72 hrs by Cell-TiterGlo assay; type: functional, cell-based; details: RPMI-8226, 72 h
[16] = system: DOHH-2; test: Antiproliferative activity against human DOHH2 cells after 72 hrs by Cell-TiterGlo assay; type: functional, cell-based; details: DOHH-2, 72 h
[17] = target: T2, Bromodomain-containing protein 2; remark: listed apart in the source
Target sequence in this assay (P25440 whole entry, looked up): as the sequence (P25440 whole entry) above
Description: Binding affinity to His-tagged human Brd2 bromodomain 1 (1 to 473 residues) assessed as association rate constant by suface plasmon resonance assay

[18] = Antiproliferative activity against mouse 494H cells after 72 hrs by Cell-TiterGlo assay; type: functional, cell-based
[19] = system: CCRF-CEM; test: Antiproliferative activity against human CCRF-CEM cells after 72 hrs by Cell-TiterGlo assay; type: functional, cell-based

Sequence of Bromodomain-containing protein 3 (Q15059 whole entry): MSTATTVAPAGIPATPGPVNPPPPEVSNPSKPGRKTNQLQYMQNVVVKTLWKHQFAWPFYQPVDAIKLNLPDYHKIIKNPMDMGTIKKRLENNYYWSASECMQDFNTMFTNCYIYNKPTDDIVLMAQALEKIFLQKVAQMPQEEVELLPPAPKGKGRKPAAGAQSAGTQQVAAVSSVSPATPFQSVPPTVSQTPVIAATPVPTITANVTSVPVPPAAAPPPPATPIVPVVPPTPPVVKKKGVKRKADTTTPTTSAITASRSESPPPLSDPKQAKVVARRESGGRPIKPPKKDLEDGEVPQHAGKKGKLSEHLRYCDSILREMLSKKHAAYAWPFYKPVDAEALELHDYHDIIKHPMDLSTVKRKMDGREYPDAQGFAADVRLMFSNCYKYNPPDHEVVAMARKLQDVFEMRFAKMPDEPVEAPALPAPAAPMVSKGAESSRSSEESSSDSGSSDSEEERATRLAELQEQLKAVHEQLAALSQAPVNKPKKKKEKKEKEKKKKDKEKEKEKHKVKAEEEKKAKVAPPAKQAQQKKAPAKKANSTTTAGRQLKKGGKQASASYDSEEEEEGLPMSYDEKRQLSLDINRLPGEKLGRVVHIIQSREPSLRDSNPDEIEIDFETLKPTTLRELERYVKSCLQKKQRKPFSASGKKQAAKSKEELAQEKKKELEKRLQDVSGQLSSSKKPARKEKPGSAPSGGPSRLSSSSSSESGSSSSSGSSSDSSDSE

SMILES | IC50 [1] | IC50 [2] | IC50 [3] | IC50 [4] | IC50 [5] | other results
Cc1nnn2c1-c1ccc(C(N)=O)cc1N(c1ccc(Cl)cc1)CC2 | 6 nM | 2 nM | – | – | – | –
Cc1nnn2c1-c1ccc(C(=O)O)cc1N(c1ccc(Cl)cc1)CC2 | – | – | 16 nM | 185 nM | 50 nM | –
Cc1ccc(-c2ccc3c(c2)N(c2ccc(Cl)cc2)CCn2nnc(C)c2-3)cn1 | 16 nM | 7 nM | 10 nM | – | – | –
Cc1nnn2c1-c1ccccc1N(Cc1cccc(Br)c1)CC2 | 29 nM | 17 nM | 21 nM | 129 nM | 44 nM | –
Cc1nnn2c1-c1ccc(-c3nn[nH]n3)cc1N(c1ccc(Cl)cc1)CC2 | 3 nM | 2 nM | – | – | – | –
Cc1nnn2c1-c1ccc(C(=O)N[C@@H](C)c3ccccc3)cc1N(c1ccc(Cl)cc1)CC2 | – | – | 12 nM | – | – | –
Cc1nnn2c1-c1ccc(C#N)cc1N(c1ccc(Cl)cc1)CC2 | 11 nM | 13 nM | – | – | – | –
Cc1nnn2c1-c1ccc(C(=O)NCc3ccccc3)cc1N(c1ccc(Cl)cc1)CC2 | 35 nM | 15 nM | – | – | – | –
Cc1nnn2c1-c1ccc(Cn3cccn3)cc1N(c1ccc(Cl)cc1)CC2 | 45 nM | 38 nM | 52 nM | – | – | –
Cc1nnn2c1-c1ccc(-c3ccc(N)nc3)cc1N(c1ccc(Cl)cc1)CC2 | 13 nM | 6 nM | 9 nM | – | – | EC50 [6]: 560 nM; EC50 [7]: > 10000 nM; EC50 [8]: 152 nM; EC50 [9]: 977 nM; EC50 [10]: 77 nM; EC50 [11]: 140 nM; EC50 [12]: 1280 nM; EC50 [13]: 400 nM; Ka [14]: 2.62 ×10⁵ /M/s; EC50 [15]: 631 nM; EC50 [16]: 561 nM; Ka [17]: 2.9 ×10⁵ /M/s; EC50 [18]: 166 nM; EC50 [19]: 1360 nM
Cc1nnn2c1-c1ccccc1N(c1ccc(Cl)cc1)C[C@H]2C | – | – | – | 38 nM | 25 nM | –
Cc1nnn2c1-c1ccc(C(=O)Nc3ccccc3)cc1N(c1ccc(Cl)cc1)CC2 | – | – | 14 nM | – | – | –
Cc1nnn2c1-c1ccc(C(=O)N[C@H](C)c3ccccc3)cc1N(c1ccc(Cl)cc1)CC2 | – | – | 13 nM | – | – | –
Cc1nnn2c1-c1ccc(C(=O)NS(=O)(=O)c3ccccc3)cc1N(c1ccc(Cl)cc1)CC2 | 21 nM | 10 nM | 21 nM | 54 nM | 25 nM | –
Cc1nnn2c1-c1ccc(C(=O)NS(C)(=O)=O)cc1N(c1ccc(Cl)cc1)CC2 | 13 nM | 7 nM | – | – | – | –
Cc1nnn2c1-c1ccc(C(=O)N[C@@H](C)c3ccc(F)cc3)cc1N(c1ccc(Cl)cc1)CC2 | – | – | 23 nM | – | – | –
Cc1nnn2c1-c1ccccc1N(c1ccc(Cl)cc1)CC2CCO (stereo not drawn) | 52 nM | 36 nM | 44 nM | 340 nM | 45 nM | –
Cc1sc2c(c1C)C(c1ccc(Cl)cc1)=NC(CC(=O)OC(C)(C)C)c1nnc(C)n1-2 (stereo not drawn) | – | – | – | – | – | EC50 [6]: 330 nM; EC50 [7]: > 10000 nM; EC50 [8]: 51 nM; EC50 [9]: 660 nM; EC50 [10]: 64 nM; EC50 [11]: 39 nM; EC50 [12]: 284 nM; EC50 [13]: 180 nM; EC50 [15]: 258 nM; EC50 [16]: 279 nM; EC50 [18]: 122 nM; EC50 [19]: 2040 nM
Cc1nnn2c1-c1ccccc1N(c1ccccc1)CC2 | 28 to 39.4 nM | 12 to 21.5 nM | – | – | – | –
Cc1nnn2c1-c1ccc(C(O)C(F)(F)F)cc1N(c1ccc(Cl)cc1)CC2 (stereo not drawn) | 43 nM | 23 nM | – | – | – | –
Cc1nnn2c1-c1ccccc1N(c1ccc(Cl)cc1)C[C@@H]2C | – | – | – | 53 nM | 34 nM | –
Cc1nnn2c1-c1ccc(C(=O)NC(c3ccccc3)c3ccccc3)cc1N(c1ccc(Cl)cc1)CC2 | – | – | 39 nM | 151 nM | 44 nM | –
Cc1nnn2c1-c1ccc(-c3cc[nH]n3)cc1N(c1ccc(Cl)cc1)CC2 | 14 nM | 7 nM | 10 nM | – | – | EC50 [6]: 780 nM; EC50 [7]: > 10000 nM; EC50 [8]: 139 nM; EC50 [9]: 570 nM; EC50 [10]: 111 nM; EC50 [11]: 200 nM; EC50 [12]: 973 nM; EC50 [13]: 720 nM; EC50 [15]: 495 nM; EC50 [16]: 285 nM; EC50 [18]: 194 nM; EC50 [19]: 2220 nM
Cc1nnn2c1-c1ccccc1N(c1ccccc1)C(=O)C2 | > 10000 nM | > 10000 nM | > 10000 nM | > 10000 nM | > 10000 nM | –
